Laboratory results reported in patent US7544666B2, “NAP derivatives” (Industrial Technology Research Institute, priority 2005, dated 2009).

Key:
[1] = Stability in Hanks' balanced salt solution (HBSS); assay type: physicochemical; details: 37° C., relative to initial conc. in HBSS = 100.00
Protocol: (§1) The stability of the NAP derivatives prepared by EXAMPLE 1 was measured with the system of human colon cancer cell, Caco-2 cell. Caco-2 cells (1×10^5 cells) were first seeded into a polycarbonate film on the upper layer of a 12-well Transwell and incubated for 18 to 26 days at 37° C. The TEER of the Caco-2 cell monolayer was measured over 350 Ω×cm^2. The stability of the NAP derivatives in the Hanks' balanced salt solutions (HBSS) was measured by the concentration changes of NAP and the NAP derivatives incubated in the HBSS at 37° C. for 4 hours. The stability of the NAP derivatives in the Caco-2 cell system was measured by the procedure described below. NAP and the NAP derivatives in the HBSS were added into the upper layer of the Caco-2 cell-seeded Transwell. After 4-hour incubation, the concentration of NAP and the NAP derivatives in the upper and lower layers was measured and analyzed in comparison with the initial concentration (500 μM) by reverse HPLC at 210 nm.

[2] = test system: Caco-2 cell; test: Stability in the Caco-2 cell system; assay type: in vitro ADME, human; details: 4-hour incubation in Caco-2 Transwell; relative to initial conc. = 100.00 (500 μM)
Protocol: as §1

[3] = test system: Caco-2 cell monolayer; test: Permeation to Caco-2 cell monolayer; assay type: in vitro ADME, human; parameters: unit not given here; details: 4-hour incubation, initial concentration 500 μM in upper layer
Protocol: The permeation of NAP and the NAP derivatives was examined using the Caco-2 cell system. Caco-2 cells (1×10^5 cells) were seeded into the polycarbonate film on the upper layer of a 12-well Transwell and incubated at 37° C. for 18 to 26 days. The TEER of the Caco cell monolayer was measured over 350 Ω×cm^2. NAP and the NAP derivatives in the HBSS were added into the upper layer of the Caco-2 cell-seeded Transwell. After 4-hour incubation, the concentration of NAP and the NAP derivatives in the upper and lower layers was measured and analyzed in comparison with the initial concentration (500 μM) by reverse phase HPLC at 210 nm.

[4] = test system: scopolamine-induced amnesia rats; test: Morris water maze in scopolamine-induced amnesia rats; assay type: in vivo, rat; details: 0.25 mg/kg subcutaneous, 5 min after scopolamine 1 mg/kg i.p.; FIG. 11
Protocol: Scopolamine-induced amnesia […] were used in combination of Morris water maze, a memory and behavior analysis system, to assess the in vivo effects of the NAP derivative BMEC-NAP0701 and NAP.
Sprague-Dawley male rats with body weight of 220-250 g obtained from the National Laboratory Animal Center, Taiwan, were caged in an air-conditioned housing with a temperature of 23±1° C. and kept on an alternating 12-hour light and 12-hour dark schedule with sufficient feed and water. […]
Morris Water Maze was performed with a water maze device containing a stainless pool with a size of 160 cm in diameter, 50 cm in height, and 15 mm in thickness of the wall and a platform with a size of 11 cm in diameter, and 22 cm in height. […] The swimming time and track were recorded by VEDEOMEX-V video tracing system, video recorder, and monitor (Columbus Instruments) and analyzed by Water Maze Program (Columbus Instruments). […]
Late of the third day: Two to four hours after the third day training, the platform was removed from the pool. The trained rats were separately sent to quadrant I and the swimming track was recorded for 60 sec. The time spent in finding the original platform was also recorded. […]
Early of the fifth day: The platform was placed in the quadrant II and submerged beneath water level about 1 cm. The rats were separately sent to quadrant I and the time spent in finding the platform was recorded. […]

## CC[C@H](C)[C@H](NC(=O)[C@H](CO)NC(=O)[C@@H](NC(=O)[C@@H]1CCCN1C(=O)[C@H](C)NC(=O)[C@H](CC(N)=O)NC(=O)c1ccccc1)C(C)C)C(=O)N1CCC[C@H]1C(=O)N[C@@H](CCC(N)=O)C(=O)O [BMEC-NAP0701, Benzoyl-NAPVSIPQ-OH]
[1]
  Conc. after 4-hour in HBSS: 98.62
[2]
  Conc. after 4-hour in Caco-2 cells: 78.97
[3]
  Conc. at the lover layer: 0.28
[4]
  memory improving effect (time spent in finding the platform vs scopolamine-induced rats): memory improving effect similar to NAP in vivo
